Read-outs that look alike come from different tables or passages of the source.
Experiments:
[1] = tested on: promastigotes of Cas9^ΔNT1; test: Resazurin-based assay on Cas9^ΔNT1 promastigotes; format: cell-based, Leishmania mexicana
Procedure: (§1) Bloodstream trypomastigotes of the Y strain (DTU II) were obtained by cardiac puncture of infected Swiss Webster mice on the parasitemia peak to perform drug sensitivity assays. Trypomastigote forms of the Tulahuen-β gal strain were collected from the supernatant of previously infected L929 cell cultures (host/parasite cell ratio 10:1). The intracellular forms T. cruzi were studied by the infection of L929 and H9C2 (2D and 3D) cell cultures infected for 48 and 24 h with trypomastigotes of Tulahuen-β gal and Y strains, respectively. The Leishmania mexicana-Cas9 T7 strain (LmexCas9) was derived from L. mexicana WT promastigotes by expression of the Streptococcus pyogenes Cas9 nuclease gene ‘Cas9′ and maintained on 32 μg/mL hygromycin [51]. This strain and the derived strains Cas9^ΔNT1 and Cas9^ΔNT1+TcrNT2 were cultured in HOMEM medium supplemented with 10% of FBS and 1% Penicillin-Streptomycin antibiotic in unvented flasks at 25 °C [52]. The Cas9^ΔNT1 strain is identical to Cas9 except that the LmexNT1.1/NT1.2 locus encoding the L. mexicana adenosine/ pyrimidine transporters was excised using Cas9 [17, 40]. Cas9^ΔNT1+TcrNT2 is the further modification of that strain by the expression of the T. cruzi nucleoside transporter 2 (TcrNT2) gene in it, using the vector pNUS-HcN [53]. Appropriate antibiotics were added for the selection and maintenance of transfectants.
(§2) The EC50 values for nucleoside analogues against Leishmania mexicana promastigotes of the Cas9, Cas9^ΔNT1 and Cas9^ΔNT1+TcrNT2 strains used a resazurin-based assay, as described. Briefly, the assays were performed in standard HOMEM medium and culture conditions, in white opaque 96-well plates. For each test compound (stored as a 40 mM stock solution in 100% DMSO at −20 °C), a doubling dilution was performed over 2 rows of the plate, keeping the last well free as no-drug control with HOMEM only (23 doubling dilutions; highest concentration 100 µM). To each well, 100 µL of HOMEM containing 2 × 10^5 cells of the appropriate L. mexicana line was added, and the plates incubated for 72 h at 25 °C, followed by the addition of 20 µL of resazurin solution and further incubation for 48 h. Fluorescence was read on a FLUOstar OPTIMA plate reader (BMG Labtech, Germany), at an excitation wavelength of 544 nm and an emission wavelength of 620 nm. The EC50 values were determined by the GraphPad Prism 8.0 software using an equation for a sigmoid curve with variable slope. Pentamidine was used as positive control, and every experiment was independently performed at least 3 times independently.

[2] = tested on: T. cruzi (Y strain) in male Swiss mice; test: Mouse model of acute T. cruzi infection (Y strain); format: in vivo; settings: for protection against loss of weight induced by acute infection: 25 mg/kg/day oral, 5 days; for parasite DNA amplification in blood (qPCR): 77 dpi, heart puncture, derivatives 25 mg/kg/day, Bz 100 mg/kg/day, 5 days oral, limit of detection 0.47 eq par/mL; for reduction of parasitemia: gavage once a day, 5 consecutive days, 25 mg/kg/day, from parasitemia onset, p < 0.05
Procedure: Thus, a proof-of-concept study was performed in T. cruzi-infected mice. The infected animals were treated (gavage, once a day) for 5 consecutive days with the derivatives (25 mg/kg/day) or Bz (100 mg/kg/day), starting drug administration at the parasitemia onset, usually on day 5 dpi, following doses and protocols already established for the other nucleoside derivatives.
The synthesis and characterization of FH11706, FH10714 [46] and FH8513 [19] were previously reported. Benznidazole (Bz) was purchased from Laboratório Farmacêutico do Estado de Pernambuco (Brazil). […] For in vivo assays, Bz was formulated using 3% Tween 80 in distilled water and the nucleoside analogues in 10% (v/v) EtOH, with 1.1 mM aqueous citrate buffer pH 3.2 and dosed according to animal body weight.
Male Swiss Webster mice (18−20 g; 4−5 weeks of age) were obtained from the Institute of Sciences and Technologies in Biomodels (ICTB-FIOCRUZ), housed with a maximum of 5 animals per cage and kept in a specific pathogen-free (SPF) room at 20−24 °C under a 12 h light and 12 h dark cycle. All animals received sterilized water and food ad libitum. The animals were acclimatized for 7 days before the experiments. To detect possible toxic events, nucleoside analogues and Bz were orally given to non-infected Swiss male mice (n = 2) for 5 consecutive days, with a fixed dose of 50 mg/kg (0.1 mL). On day 5, all animals were euthanized to inspect toxic and subtoxic symptoms. For a proof-of-concept study, animals were infected by i.p. administration of 10^4 bloodstream trypomastigotes (Y strain), and drug administration started at the onset of parasitemia (6 dpi), only using mice with detectable parasitemia. Control mice groups were age-matched and housed under identical conditions. The following experimental groups were used (3 mice per group): untreated (infected vehicle-treated control) and treated (infected and treated with derivatives or with benznidazole). The derivatives and Bz were given orally (gavage) for five consecutive days at 25 mg/kg and 100 mg/kg, respectively, once a day. Parasitemia levels in T. cruzi assays were individually checked by light microscopic counting of parasites in 5 μL of blood, as described. For blood qPCR analysis, 500 µL of blood was diluted in a 1:2 volume of guanidine solution and heated for 60 s in boiling water, followed by DNA purification using High Pure PCR Template Preparation Kit (Roche Applied Science) and quantitative real-time multiplex PCR assays. TaqMan probes were used for quantification of both T. cruzi satellite nuclear DNA and internal amplification control (IAC), as described in Duffy et al. (2013), using the following primer and prober sets: Cruzi1 5′-[…]-3′ (750 nM), Cruzi2 5′-[…]-3′ (750 nM), Cruzi3 FAM-5′-CACACACTGGACACCAA-3′-NFQ-MGB (50 nM), IAC Fw 5′-[…]-3′ (100 nM), IAC Rv 5′-[…]-3′ (100 nM) and IAC Tq 5′-VIC-AGCATCTGTTCTTGAAGGT-NFQ-MGB-3′ (50 nM). The cycling conditions were a first step of 10 min at 95 °C, followed by 40 cycles at 95 °C for 15 s and 58 °C for 1 min. The amplifications were carried out in a Quantstudio 3 real-time PCR system (Applied Biosystems), with the threshold set at 0.02 in all runs. Standard curves were constructed for absolute quantification through the serial dilution of total DNA, ranging from 10^5 parasite equivalent to 1 parasite equivalent per mL of blood, obtained with a negative blood sample in guanidine-EDTA. Parasite load was expressed as equivalent of parasite DNA per mL of blood.

[3] = tested on: intracellular forms of T. cruzi; set-up: method as in PMID 20428688; settings: read-out: EC90 value of Bz against the intracellular forms of T. cruzi; cited from earlier work
[4] = tested on: promastigotes of Lmex^ΔNT1+TcrNT2; test: Resazurin-based assay on Cas9^ΔNT1+TcrNT2 promastigotes; format: cell-based, Leishmania mexicana; settings: for EC50: Leishmania mexicana, read-out: Lmex^ΔNT1+TcrNT2 EC50 (μM)
Procedure: as §1, §2

[5] = Leishmania mexicana, read-out: Cas9^ΔNT1 EC50 (μM), promastigotes, resazurin-based assay, highest concentration 100 µM

With `Nc1ncnc2c1c(-c1ccc(F)c(F)c1)cn2[C@@H]1O[C@H](CO)[C@@H](O)[C@H]1O` [FH11706, 7-(3,4-Difluorophenyl)tubercidin] the EC50 [1, 5] was over 100 µM, the “protection against loss of weight induced by acute infection” value [2] was “strongly protected” and the “parasite DNA amplification in blood (qPCR)” value (from here on “parasite DNA amplification”) [2] was 0.038 ± 0.016 eq par/mL. For the same compound, the reduction of parasitemia [2] was 98.4%.

In the case of `O=C(Cn1ccnc1[N+](=O)[O-])NCc1ccccc1` [Bz, Benznidazole, reference compound], the EC90 [3] is listed as 10 µM and the “parasite DNA amplification” value [2] is listed as 0.187 ± 0.082 eq par/mL.

With `Nc1ncnc2c1c(-c1ccc(Cl)c(Cl)c1)cn2[C@@H]1O[C@H](CO)C[C@H]1O` [FH8513, 7-(3,4-dichlorophenyl)-3′-deoxytubercidin] the EC50 [1, 5] was about 100 µM, the EC50 ([1]; read-out: Cas9^ΔNT1 EC50, promastigotes, resazurin-based assay, highest concentration 100 µM) was 100.5 ± 0.9 µM and the “protection against loss of weight induced by acute infection” value [2] was “strongly protected”. For the same compound, the “parasite DNA amplification” value [2] was 0.287 ± 0.017 eq par/mL, the reduction of parasitemia [2] was 99.48% and the EC50 [4] was 31.1 ± 0.5 µM. The “Lmex^ΔNT1+TcrNT2 Sensitization (fold)” value ([4]; ratio of the EC50 values of the Cas9^ΔNT1 and Cas9^ΔNT1+TcrNT2 strains) was 3.2 fold.

In the case of `Nc1ncnc2c1c(-c1ccc(Cl)c(F)c1)cn2[C@@H]1O[C@H](CO)[C@@H](O)[C@H]1O` [FH10714, 7-(3-fluoro,4-chlorophenyl)tubercidin], the EC50 [1, 5] is reported as over 100 µM, the “parasite DNA amplification” value [2] is reported as 0.046 ± 0.038 eq par/mL and the reduction of parasitemia [2] is reported as 99.58%. The “sterile (parasitological) cure in mice” value ([2]; oral once a day for 5 days (derivatives 25 mg/kg), blood qPCR) was “incapable to promote a parasitological cure” and the EC50 [4] was over 100 µM.

— PMC9695592, “Phenotypic Evaluation of Nucleoside Analogues against Trypanosoma cruzi Infection: In Vitro and In Vivo Approaches” (Molecules, 2022)
